Reference: ChEMBL document CHEMBL4118268, “Identification, Characterization, and Optimization of 2,8-Disubstituted-1,5-naphthyridines as Novel Plasmodium falciparum Phosphatidylinositol-4-kinase Inhibitors with in Vivo Efficacy in a Humanized Mouse Model of Malaria” (J Med Chem, 2018)

What was measured:
[1] = Metabolic stability in rat liver microsomes assessed as parent compound remaining at 0.1 uM in presence of NADPH after 30 mins by LC-MS/MS analysis; format: ADME, microsome; conditions: read-out: Stability
[2] = Metabolic stability in human liver microsomes assessed as parent compound remaining at 0.1 uM in presence of NADPH after 30 mins by LC-MS/MS analysis; format: ADME, microsome; conditions: read-out: Stability
[3] = Metabolic stability in mouse liver microsomes assessed as parent compound remaining at 0.1 uM in presence of NADPH after 30 mins by LC-MS/MS analysis; format: ADME, microsome; conditions: read-out: Stability
[4] = Octanol-phosphate buffer distribution coefficient, log D of the compound at pH 7.4 measured after 1 hr by HPLC method; format: physicochemical
Mus musculus [5] = assay: AUC (0 to infinity) in Balb/c mouse pretreated with CYP inhibitor ABT at 20 mg/kg, po by LC-MS analysis; format: ADME, organism-based; set-up: dose 20 mg/kg, route oral, time infinity; conditions: in vivo
[6] = Apparent half life in Balb/c mouse pretreated with CYP inhibitor ABT at 20 mg/kg, po by LC-MS analysis; format: ADME, organism-based; conditions: in vivo, read-out: t1/2(app) (converted)
[7] = Apparent half life in Balb/c mouse at 2 mg/kg, iv by LC-MS analysis; format: ADME, organism-based; conditions: in vivo, read-out: t1/2(app) (converted)
[8] = Cmax in Balb/c mouse pretreated with CYP inhibitor ABT at 20 mg/kg, po by LC-MS analysis; format: ADME, organism-based; set-up: dose 20 mg/kg, route oral; conditions: in vivo
[9] = Tmax in Balb/c mouse at 20 mg/kg, po by LC-MS analysis; format: ADME, organism-based; conditions: in vivo
[10] = Tmax in Balb/c mouse pretreated with CYP inhibitor ABT at 20 mg/kg, po by LC-MS analysis; format: ADME, organism-based; conditions: in vivo
Mus musculus [11] = assay: AUC (0 to infinity) in Balb/c mouse at 2 mg/kg, iv by LC-MS analysis; format: ADME, organism-based; set-up: dose 2 mg/kg, route intravenous, time infinity; conditions: in vivo
[12] = Apparent half life in Balb/c mouse at 20 mg/kg, po by LC-MS analysis; format: ADME, organism-based; conditions: in vivo, read-out: t1/2(app) (converted)
[13] = Cmax in Balb/c mouse at 20 mg/kg, po by LC-MS analysis; format: ADME, organism-based; set-up: dose 20 mg/kg, route oral; conditions: in vivo
Mus musculus [14] = assay: AUC (0 to infinity) in Balb/c mouse at 20 mg/kg, po by LC-MS analysis; format: ADME, organism-based; set-up: dose 20 mg/kg, route oral, time infinity; conditions: in vivo
[15] = Cmax in Balb/c mouse pretreated with CYP inhibitor ABT at 5 mg/kg, po by LC-MS analysis; format: ADME, organism-based; set-up: dose 5 mg/kg, route oral; conditions: in vivo
[16] = Cmax in humanized NOD-scid IL2Rgamma null mouse infected with Plasmodium falciparum 3D70087/N9 at 5 mg/kg, po up to 96 hrs post dose by LC-MS/MS analysis; format: ADME, organism-based; set-up: dose 5 mg/kg, route oral; conditions: in vivo
[17] = In vivo drug metabolism in Balb/c mouse assessed as naphthyridine core or pyridine substituent oxidation metabolite formation in plasma at 5 mg/kg, po or […], iv by LC-MS analysis; format: ADME, organism-based
[18] = Tmax in humanized NOD-scid IL2Rgamma null mouse infected with Plasmodium falciparum 3D70087/N9 at 50 mg/kg, po up to 96 hrs post dose by LC-MS/MS analysis; format: ADME, organism-based; conditions: in vivo
Mus musculus [19] = assay: AUC in humanized NOD-scid IL2Rgamma null mouse infected with Plasmodium falciparum 3D70087/N9 at 5 mg/kg, po up to 24 hrs post dose by LC-MS/MS analysis; format: ADME, organism-based; set-up: time < 24 hr, dose 5 mg/kg, route oral; conditions: in vivo
[20] = Tmax in Balb/c mouse pretreated with CYP inhibitor ABT at 5 mg/kg, po by LC-MS analysis; format: ADME, organism-based; conditions: in vivo
Mus musculus [21] = assay: AUC in humanized NOD-scid IL2Rgamma null mouse infected with Plasmodium falciparum 3D70087/N9 at 50 mg/kg, po up to 24 hrs post dose by LC-MS/MS analysis; format: ADME, organism-based; set-up: time < 24 hr, dose 50 mg/kg, route oral; conditions: in vivo
Mus musculus [22] = assay: AUC (0 to infinity) in Balb/c mouse at […], iv by LC-MS analysis; format: ADME, organism-based; set-up: dose 1.5 mg/kg, time infinity, route intravenous; conditions: in vivo
[23] = Apparent half life in Balb/c mouse pretreated with CYP inhibitor ABT at 5 mg/kg, po by LC-MS analysis; format: ADME, organism-based; conditions: in vivo, read-out: t1/2(app) (converted)
[24] = Cmax in humanized NOD-scid IL2Rgamma null mouse infected with Plasmodium falciparum 3D70087/N9 at 10 mg/kg, po up to 96 hrs post dose by LC-MS/MS analysis; format: ADME, organism-based; set-up: dose 10 mg/kg, route oral; conditions: in vivo
[25] = Tmax in humanized NOD-scid IL2Rgamma null mouse infected with Plasmodium falciparum 3D70087/N9 at 5 mg/kg, po up to 96 hrs post dose by LC-MS/MS analysis; format: ADME, organism-based; conditions: in vivo
Mus musculus [26] = assay: AUC in humanized NOD-scid IL2Rgamma null mouse infected with Plasmodium falciparum 3D70087/N9 at 10 mg/kg, po up to 24 hrs post dose by LC-MS/MS analysis; format: ADME, organism-based; set-up: time < 24 hr, dose 10 mg/kg, route oral; conditions: in vivo
[27] = Tmax in humanized NOD-scid IL2Rgamma null mouse infected with Plasmodium falciparum 3D70087/N9 at 10 mg/kg, po up to 96 hrs post dose by LC-MS/MS analysis; format: ADME, organism-based; conditions: in vivo
[28] = Cmax in humanized NOD-scid IL2Rgamma null mouse infected with Plasmodium falciparum 3D70087/N9 at […], po up to 96 hrs post dose by LC-MS/MS analysis; format: ADME, organism-based; set-up: dose 2.5 mg/kg, route oral; conditions: in vivo
Mus musculus [29] = assay: AUC in humanized NOD-scid IL2Rgamma null mouse infected with Plasmodium falciparum 3D70087/N9 at […], po up to 24 hrs post dose by LC-MS/MS analysis; format: ADME, organism-based; set-up: dose 2.5 mg/kg, time < 24 hr, route oral; conditions: in vivo
[30] = Volume of distribution in Balb/c mouse at […], iv by LC-MS analysis; format: ADME, organism-based; conditions: in vivo
[31] = Tmax in humanized NOD-scid IL2Rgamma null mouse infected with Plasmodium falciparum 3D70087/N9 at […], po up to 96 hrs post dose by LC-MS/MS analysis; format: ADME, organism-based; conditions: in vivo
[32] = Cmax in humanized NOD-scid IL2Rgamma null mouse infected with Plasmodium falciparum 3D70087/N9 at 50 mg/kg, po up to 96 hrs post dose by LC-MS/MS analysis; format: ADME, organism-based; set-up: dose 50 mg/kg, route oral; conditions: in vivo

SMILES | remaining at 0.5 h, 0.1 µM [1] [%] | remaining at 0.5 h, 0.1 µM [2] [%] | remaining at 0.5 h, 0.1 µM [3] [%] | also measured
CS(=O)(=O)Nc1ccc2nccc(-c3ccncc3)c2n1 | 94 | 96 | 95 | 
O=S(=O)(NCCN1CCOCC1)c1cccc(-c2ccc3nccc(-c4ccncc4)c3n2)c1 | < 1 | < 1 | < 1 | 
NS(=O)(=O)c1ccc(-c2ccc3nccc(-c4ccncc4)c3n2)cc1 | 36 | 76 | 13 | 
C[C@@H]1CN(S(=O)(=O)c2cccc(-c3ccc4nccc(-c5ccncc5)c4n3)c2)C[C@H](C)N1 | 36 | 34 | 33 | 
O=S(=O)(c1cccc(-c2ccc3nccc(-c4ccncc4)c3n2)c1)N1CCC(O)CC1 | 11 | 5 | 7 | 
O=S(=O)(NCc1ccccc1)c1cccc(-c2ccc3nccc(-c4ccncc4)c3n2)c1 | 6 | 42 | 2 | logD at 1 h [4]: 1.8 to 4.2
NS(=O)(=O)c1cccc(-c2ccc3nccc(-c4ccncc4F)c3n2)c1 |  |  |  | logD at 1 h [4]: 1.8 to 4.2
NS(=O)(=O)c1cccc(-c2ccc3nccc(-c4ccncc4)c3n2)c1 |  |  |  | AUC (Mus musculus [5]): 243 µM/min; half-life [6]: 3.2 h; half-life [7]: 2.5 h; Cmax [8]: 500 nM; Tmax [9]: 0.5 h; Tmax [10]: 0.5 to 1 h; AUC (Mus musculus [11]): 111 µM/min; half-life [12]: 1.6 h; Cmax [13]: 5000 nM; AUC (Mus musculus [14]): 523 µM/min
NS(=O)(=O)c1cccc(-c2ccc3nccc(-c4ccnc(C(F)(F)F)c4)c3n2)c1 | 96 | 95 | 97 | Cmax [15]: 2800 nM; Cmax [16]: 1470 nM; Drug metabolism [17]: Metabolite_Detected; Tmax [18]: 2.5 h; AUC (Mus musculus [19]): 1198 µM/min; Tmax [20]: 1 h; AUC (Mus musculus [21]): 5591 µM/min; AUC (Mus musculus [22]): 350 µM/min; half-life [23]: 33 h; Cmax [24]: 2230 nM; Tmax [25]: 4 h; AUC (Mus musculus [26]): 2035 µM/min; Tmax [27]: 4 h; logD at 1 h [4]: 1.8 to 4.2; Cmax at 96 h [28]: 750 nM; AUC (Mus musculus [29]): 658 µM/min; Vd [30]: 7 L/kg; Tmax at 96 h [31]: 4 h; Cmax [32]: 6360 nM
O=S(=O)(NCCN1CCCC1)c1cccc(-c2ccc3nccc(-c4ccnc(C(F)(F)F)c4)c3n2)c1 | 16 | 14 | 8 | 
NS(=O)(=O)c1cncc(-c2ccc3nccc(-c4cn[nH]c4)c3n2)c1 |  |  | 2 | 

Continued, in another order:

remaining at 0.5 h, 0.1 µM [1] [%] | remaining at 0.5 h, 0.1 µM [2] [%] | remaining at 0.5 h, 0.1 µM [3] [%] | SMILES | also measured
66 | 56 | 60 | O=S(=O)(CCN1CCCC1)c1cccc(-c2ccc3nccc(-c4ccncc4)c3n2)c1 | 
49 | 59 | 50 | CS(=O)(=O)Nc1cccc(-c2ccc3nccc(-c4ccncc4)c3n2)c1 | 
10 | 17 | 12 | O=S(=O)(c1cccc(-c2ccc3nccc(-c4ccncc4)c3n2)c1)N1CC[C@H](O)C1 | 
59 | 95 | 52 | O=S(=O)(CCO)c1cccc(-c2ccc3nccc(-c4ccncc4)c3n2)c1 | 
61 | 78 | 54 | Nc1cccc(-c2ccc3nccc(-c4ccncc4)c3n2)c1 | 
8 | 2 | 19 | O=S(=O)(NCC1COC1)c1cccc(-c2ccc3nccc(-c4ccncc4)c3n2)c1 | 
